From US5227375A, “Aromatase inhibitors” (Endorecherche, Inc., priority 1990, dated 1993)

Biological target: T1, placental aromatase (Homo sapiens, UniProt P11511)
T1 construct: Microsomal aromatase was obtained from human placenta; from tissue; host or cells: human placenta microsomes
T1 sequence (P11511 1-503): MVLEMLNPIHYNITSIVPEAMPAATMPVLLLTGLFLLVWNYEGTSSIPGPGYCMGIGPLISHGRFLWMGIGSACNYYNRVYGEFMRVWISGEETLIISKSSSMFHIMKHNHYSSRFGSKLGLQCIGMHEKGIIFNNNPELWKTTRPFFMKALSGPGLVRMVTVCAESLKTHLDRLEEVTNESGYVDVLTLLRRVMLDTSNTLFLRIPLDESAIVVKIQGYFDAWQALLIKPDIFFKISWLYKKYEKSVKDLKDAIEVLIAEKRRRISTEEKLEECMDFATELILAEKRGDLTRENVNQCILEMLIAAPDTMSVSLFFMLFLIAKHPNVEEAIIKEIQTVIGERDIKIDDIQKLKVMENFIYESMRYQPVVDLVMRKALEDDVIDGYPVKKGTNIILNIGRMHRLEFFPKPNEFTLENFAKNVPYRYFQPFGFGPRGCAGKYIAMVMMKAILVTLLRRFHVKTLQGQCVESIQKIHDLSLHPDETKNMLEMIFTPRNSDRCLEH
Test: Inhibition of placental aromatase activity (tritiated water release from [3H]androstenedione; modified Thompson and Siiteri assay)
Format: biochemical
Settings: for aromatase inhibitory activity (in words): qualitative statement
Method: Microsomal aromatase was obtained from human placenta. A reaction vessel was prepared containing microsomes (0.124 mg protein/ml), NADPH (0.625 mM), [^3 H]androstenedione (0.33 μM) and increasing concentrations of the potential inhibitor being tested in buffer (800 μl) (0.1M KH2 PO4, pH 7.5). The conversion of androstenedione to estrone was allowed to proceed at 37° C. for 30 min and stopped by addition of 200 μl of charcoal suspension (25 mg/ml) in the same buffer. After centrifugation, tritiated water contained in 100 μl of supernatant was counted. The amount of tritiated water is proportional to the amount of transformed [^3 H] androstenedione.

Structure (SMILES)	Ki [nM]	aromatase inhibitory activity (in words)
C=CC[C@@H]1CC2=CC(=O)CC[C@]2(C)[C@H]2CC[C@]3(C)C(=O)CC[C@H]3[C@H]12 [EM 173, 7α-allyl-4-androsten-3,17-dione]	200	showed aromatase inhibitory activity
C=CC[C@@H]1C[C@@H]2CC(=O)CC[C@]2(C)[C@H]2CC[C@]3(C)C(=O)CC[C@H]3[C@H]12 [EM 176, 7α-allyl-5β-androstan-3,17-dione]	900	showed aromatase inhibitory activity
C=CC[C@@H]1C[C@H]2CC(=O)CC[C@]2(C)[C@H]2CC[C@]3(C)C(=O)CC[C@H]3[C@H]12 [EM 198, 7α-allyl-5α-androstan-3,17-dione]	600	showed aromatase inhibitory activity
